{"source": "patent EP0047496A1", "about": "“Sulfonyl ureas, processes for their production, pharmaceutical compositions based on these compounds and their use” (HOECHST AKTIENGESELLSCHAFT, priority 1980, dated 1982)"}
{"system": "Kaninchen", "test": "Blood sugar lowering after oral administration to rabbits (autoanalyzer)", "assay_type": "in vivo", "details": "0,4 mg/kg oral, nach 6 Stunden", "experimental": "Die blutzuckersenkende Wirkung der erfindungsgemäßen Benzolsulfonylharnstoffe kann dadurch festgestellt werden, daß man sie als freie Verbindungen oder in Form der Natriumsalze an normal ernährte Kaninchen verfüttert und den Blutzuckerwert nach der bekannten Methode von Hagedorn-Jensen oder mit einem Autoanalyzer über eine längere Zeitdauer ermittelt.\nDie routinemäßige Bestimmung der blutzuckersenkenden Wirkung kann mit Dosierungen von z.B. 10,2 oder 0,4 mg oder mit noch geringeren Mengen Wirksubstanz pro kg Versuchstier nach bekannten Methoden erfolgen.\nDie folgenden Verbindungen I bis V wurden in Dosierungen von 2 mg/kg Kaninchen oral verabreicht und die Blutzuckerwerte wurden mit einem Autoanalyzer über eine Zeitdauer von 24 Stunden ermittelt. Die hierbei gemessene Blutzuckersenkung ist in der nachfolgenden Tabelle in % nach ... Stunden angegeben. • I N-(4-<2-(N'-<5-Chlor-2-methoxy-benzoyl>-ureido)-äthyl>- benzolsulfonyl)-N'-cyclohexyl-harnstoff • II N-(4-<2-(N'-<5-Chlor-2-methoxy-benzoyl>-ureido)-äthyl>- benzolsulfonyl)-N'-butyl-harnsotff • III N-(4-<2-(N'-<5-Chlor-2-methoxy-benzoyl>-ureido)-äthyl>- benzolsulfonyl)-N'-cyclopentyl-harnstoff • IV N-(4-<2-(N'-<2-Methoxy-5-methyl-benzoyl)-ureido)-äthyl>- benzolsulfonyl)-N'-cyclohexyl-harnstoff • V N-(4-<2-(N'-<2-Methoxy-5-methyl-benzoyl>-ureido)-äthyl>- benzolsulfonyl)-N'-(4-methyl-cyclohexyl)-harnstoff [formula]\nDie Verbindungen I, IV und V wurden in Dosierungen von 0,4 mg/kg oral an Kaninchen verabreicht und die Blutzuckersenkung gemessen. Sie betrug nach 6 Stunden 40 % (Verbindung I), 41 % (Verbindung IV) und 33 % (Verbindung V).", "units": {"Blutzuckersenkung": "%"}}
{"smiles": "COc1ccc(C)cc1C(=O)NC(=O)NCCc1ccc(S(=O)(=O)NC(=O)NC2CCCCC2)cc1", "note": "[Verbindung IV]", "Blutzuckersenkung": 41}
{"smiles": "COc1ccc(C)cc1C(=O)NC(=O)NCCc1ccc(S(=O)(=O)NC(=O)NC2CCC(C)CC2)cc1", "note": "(stereo not drawn) [Verbindung V, N-(4-<2-(N'-<2-Methoxy-5-methyl-benzoyl>-ureido)-äthyl>- benzolsulfonyl)-N'-(4-methyl-cyclohexyl)-harnstoff]", "Blutzuckersenkung": 33}
{"smiles": "COc1ccc(Cl)cc1C(=O)NC(=O)NCCc1ccc(S(=O)(=O)NC(=O)NC2CCCCC2)cc1", "note": "[Verbindung I, N-(4-<2-(N'-<5-Chlor-2-methoxy-benzoyl>-ureido)-äthyl>- benzolsulfonyl)-N'-cyclohexyl-harnstoff]", "Blutzuckersenkung": 40}
